Measurements taken from BigSolDB 2.1.

O=C(O)COc1ccc(Cl)cc1Cl
solubility (mole fraction)
Conditions	278.15 K	283.15 K	288.15 K	293.15 K	298.15 K	303.15 K	308.15 K	313.15 K	318.15 K	323.15 K
in 2-butanone	0.0937	0.103	0.112	0.123	0.134	0.144	0.156	0.169	0.184	0.201
in MTBE	0.087	0.0961	0.106	0.116	0.126	0.137	0.148	0.161	0.175	0.19
in acetone	0.107	0.116	0.127	0.137	0.15	0.163	0.176	0.191	0.205	0.222
in acetonitrile	0.0178	0.0246	0.0306	0.0401	0.0499	0.0572	0.0672	0.078	0.0888	0.103
in ethanol	0.0654	0.0797	0.0975	0.117	0.141	0.167	0.192	0.223	0.255	0.292
in ethyl acetate	0.0548	0.0622	0.0703	0.0798	0.0894	0.101	0.113	0.126	0.14	0.155
in isobutanol	0.0317	0.0402	0.0508	0.0627	0.0778	0.0933	0.112	0.135	0.161	0.19
in isobutyl acetate	0.0365	0.0427	0.0494	0.0574	0.0657	0.0747	0.0846	0.0958	0.11	0.128
in isopropanol	0.0424	0.0525	0.0646	0.0783	0.0942	0.113	0.132	0.153	0.176	0.201
in methyl acetate	0.0602	0.0685	0.0761	0.0846	0.0976	0.106	0.119	0.131	0.144	0.16
in n-butanol	0.0521	0.0644	0.079	0.0986	0.127	0.146	0.17	0.198	0.231	0.27
in n-butyl acetate	0.0486	0.0535	0.0604	0.0678	0.0749	0.0832	0.0931	0.106	0.12	0.136
in n-pentanol	0.0537	0.0701	0.0866	0.107	0.131	0.155	0.182	0.211	0.243	0.281
in n-propanol	0.0486	0.0602	0.0731	0.0911	0.11	0.131	0.152	0.179	0.207	0.236
in sec-butanol	0.043	0.0535	0.0665	0.0809	0.098	0.117	0.139	0.162	0.186	0.213
